This note sets out measurements from the COVID Moonshot data (paper PMC7615835).

Where “and” joins values, the source holds several entries; their conditions need not be identical. Identical values can stand only once.

The experiment has as its target SARS-CoV-2 Main Protease (SARS-CoV-2) (UniProt P0DTD1).
Usually IC50 stands for the concentration that gives 50% inhibition. The molecule `O=C(Cc1cc(Cl)cc(Nc2ccccc2Cc2ccccc2)c1)Nc1cncc2ccccc12` showed an IC50 of 1.97 µM. The same measure for `COc1ccccc1OC1CCN(C(=O)c2cc(=O)[nH]c3ccccc23)C1` (stereo not drawn): more than 99.5 µM; for `Cn1nc(C(C(=O)NCCc2cccc(F)c2)N(C(=O)c2ccco2)c2ccc(C(C)(C)C)cc2)c2ccccc21` (stereo not drawn): more than 99.5 µM; for `COc1ccc(N2CCN(C(=O)c3cc(=O)[nH]c4ccccc34)CC2)cc1`: 14.7 µM. On to `CN(C1CC1)S(=O)(=O)N1Cc2ccc(Cl)cc2C(C(=O)Nc2cncc3ccccc23)C1` (stereo not drawn), for which the IC50 turned out to be 0.104 µM. `CC(C)(C)c1ccc(N(C(=O)c2ccon2)C(C(=O)NCCc2cccc(F)c2)c2cccnc2)cc1` (stereo not drawn) returned a 50% inhibitory concentration (IC50) of 4.26 µM. As to `Cc1nnn(-c2ccc(N(C(=O)c3cocn3)C(C(=O)NCCc3cccc(F)c3)c3cccnc3)cc2)n1` (stereo not drawn), the IC50 was found to be 33.2 µM. The same measure for `O=C(Cc1cc(Cl)cc(N2CCN(c3nsc4ccccc34)CC2)c1)Nc1cncc2ccccc12`: 3.34 µM. Molecule `CC(C)(C)c1ccc(N(C(=O)c2ccccc2)C(C(=O)NCCc2cccc(F)c2)c2cccnc2)cc1` (stereo not drawn) came in with a concentration for half-maximal inhibition (IC50) of more than 99.5 µM. The molecule `Cc1cc(Nc2cc(Cl)cc(CC(=O)Nc3cncc4ccccc34)c2)ncc1I` gave an IC50 of 2.35 µM. As to `Cc1ccncc1NC(=O)Nc1cccc(C#N)c1`, the concentration for half-maximal inhibition (IC50) was more than 99 µM. As for `Nc1ccc2[nH]c(C(=O)N(C(=O)c3ccco3)C(C(=O)NCCc3cccc(F)c3)c3cccnc3)cc2c1` (stereo not drawn), the IC50 was more than 99.5 µM. `CN(C)C(=O)C[C@@]1(C(=O)Nc2cncc3ccccc23)CCOc2ccc(Cl)cc21` (stereo in doubt) displayed a concentration for half-maximal inhibition (IC50) of 20.5 µM. The molecule `O=[N+]([O-])c1cnc(Sc2nnc(-c3ccc(Cl)cc3)o2)s1` gave a half-inhibitory concentration (IC50) of 0.881 µM. Consider `CC(C)C[C@H]1CN(C(=O)CCl)CCN1Cc1cccc(Cl)c1` (stereo in doubt), for which the half-maximal inhibitory concentration (IC50) was 0.759 µM and 0.641 µM. In the case of `Nc1cccc(C2CN(C(=O)CCl)Cc3ccccc32)c1` (stereo not drawn), the half-maximal inhibitory concentration (IC50) came out at 9.23 µM. The same measure for `O=C(Cc1cc(Cl)cc(NCCc2ccc(Cl)cc2Cl)c1)Nc1cncc2ccccc12`: 3.91 µM; for `C[C@@H]1CC[C@@]2(OC1)O[C@H]1C[C@H]3[C@@H]4CC=C5C[C@@H](O)CC[C@]5(C)[C@H]4CC[C@]3(C)[C@]1(O)[C@@H]2C` (stereo in doubt): more than 99.5 µM; for `COCc1csc(-c2nnc(-c3sc(-c4ccccc4)nc3C)o2)c1`: more than 99.5 µM. The same measure for `Cc1cc(Nc2cc(Cl)cc(CC(=O)Nc3cncc4ccccc34)c2)c(F)cc1Br`: 2.05 µM; for `CC(CNc1ccc2nnnn2n1)c1nc2ccccc2s1` (stereo not drawn): more than 99.5 µM. In the case of `CC1CC(CCN(C(=O)c2ccco2)C(C(=O)NCCc2cccc(F)c2)c2cccnc2)CC(C)(C)C1` (stereo not drawn), the 50% inhibitory concentration (IC50) is more than 99.5 µM. The same measure for `Cc1cc(Nc2cc(Cl)cc(CC(=O)Nc3cncc4ccccc34)c2)c(Cl)cc1F`: 2.15 µM. `c1ccc2oc(C3CCCN(Cc4cnc5cnccn45)C3)nc2c1` (stereo not drawn) had a 50% inhibitory concentration (IC50) of more than 99.5 µM.

As to `O=C(Cc1cccc(Cl)c1)Nc1cnccc1C(=O)O`, the IC50 was more than 99.5 µM. As to `CC(C)(C#N)CS(=O)(=O)N1Cc2ccc(Cl)cc2[C@@H](C(=O)Nc2cncc3ccccc23)C1` (stereo in doubt), the concentration for half-maximal inhibition (IC50) worked out at 13.2 µM. As for `O=C1CCN(S(=O)(=O)c2cccc(F)c2)CC1`, the figure is more than 99.5 µM; as for `COCc1csc(N(C(=O)c2cocn2)C(C(=O)NCCc2cccc(F)c2)c2cccnc2)n1` (stereo not drawn), more than 99.5 µM. In the case of `C[C@H](Nc1cc(Cl)cc(CC(=O)Nc2cncc3ccccc23)c1)c1cccc2ccccc12` (stereo in doubt), the IC50 stood at 3.53 µM. For the molecule `CCNC(=O)CN1CC(C(=O)Nc2cncc3ccccc23)c2cc(Cl)ccc2C1=O` (stereo not drawn), the IC50 is 0.0628 µM and 0.105 µM and 0.143 µM. In turn, `COc1ccc(N(C(C)=O)c2cc(Cl)cc(CC(=O)Nc3cncc4ccccc34)c2)cc1N` returned a half-inhibitory concentration (IC50) of 2.71 µM.

`CN1C(=O)CC(O)(C(=O)Nc2cncc3ccccc23)c2cc(Cl)ccc21` (stereo not drawn) came in with an IC50 of 20.7 µM. Molecule `Cc1c(Nc2cc(Cl)cc(CC(=O)Nc3cncc4ccccc34)c2)c(=O)n(-c2ccccc2)n1C` returned an IC50 of 3.41 µM. The molecule `Cc1cc(Nc2ccc3nc(C)sc3c2)n2ncnc2n1` came in with an IC50 of more than 99.5 µM. As for `CC(C)N(C)S(=O)(=O)N1Cc2ccc(Cl)cc2C(C(=O)Nc2cncc3ccccc23)C1` (stereo not drawn), the IC50 was found to be 0.126 µM.

The molecule `O=C(CCl)N1CCCN(S(=O)(=O)c2cc(F)ccc2F)CC1` showed an IC50 of 12.1 µM. Molecule `Cc1ccc(NC2=C(c3ccccc3)C(=O)N(Cc3cccnc3)C2=O)c(C)c1` came in with a 50% inhibitory concentration (IC50) of more than 99.5 µM. Consider `Cc1ccncc1NC(=O)C(C)c1cccc(Cl)c1` (stereo not drawn), for which the 50% inhibitory concentration (IC50) was 27.2 µM and 25.2 µM. Consider `O=C(Nc1cncc2ccccc12)C1COc2c(Cl)cccc21` (stereo not drawn), for which the IC50 worked out at 4.76 µM.

`O=C(NNc1cc(O)nc2ncccc12)c1ccnc2ccccc12` registered a 50% inhibitory concentration (IC50) of more than 99.5 µM.

In the case of `O=C(Cc1cc(Cl)cc(N2CCN(c3ncccn3)CC2)c1)Nc1cncc2ccccc12`, the IC50 came to 2.52 µM. As for `CCc1ccc(S(C)(=O)=O)cc1C(=O)N1CCC(C2CCNC2)CC1` (stereo not drawn), the half-inhibitory concentration (IC50) is more than 99.5 µM. In the case of `O=C(Nc1cncc2ccccc12)C1CCOc2c(OCc3ccccn3)cc(Cl)cc21` (stereo not drawn), the half-inhibitory concentration (IC50) was found to be 6.43 µM. As for `Cc1ccncc1NC(=O)[C@H](C)OC(F)F` (stereo in doubt), the concentration for half-maximal inhibition (IC50) is more than 99.5 µM.

In turn, `Cc1ccc(N(Cc2cccc(Cl)c2)C(=O)Cn2nnc3ccccc32)cc1` registered an IC50 of 2.33 µM. The molecule `CC(C)(C)c1ccc(N(C(=O)c2nnc(S)[nH]c2=O)C(C(=O)NCCc2cccc(F)c2)c2cccnc2)cc1` (stereo not drawn) had an IC50 of more than 99.5 µM. As for `O=CC(=O)N1CCN(Cc2cccc(Cl)c2)CC1`, the figure is 56.6 µM and 49.6 µM. As for `Cc1ccccc1CN(C(=O)c1cocn1)C(C(=O)NCCc1cccc(F)c1)c1cccnc1` (stereo not drawn), the figure is more than 99.5 µM; as for `CCOC(=O)c1ncoc1CNC(=O)C(c1cccnc1)N(C(=O)c1cocn1)c1ccc(C(C)(C)C)cc1` (stereo not drawn), 5.88 µM; as for `Cc1nn(C)c2[nH]nc(NC(=O)Cc3cccc(Cl)c3)c12`, more than 99.5 µM. Take `O=C(Cn1nnc2ccccc21)Nc1cccc(Cl)c1`: the IC50 is more than 99.5 µM. `O=C(Cn1nnc2ccccc21)N(CC1CCOC1)c1ccc(C2CCNCC2)cc1` (stereo not drawn) returned an IC50 of more than 99.5 µM. The molecule `O=C(Cc1cc(Cl)cc(Nc2cnc(Br)c(Cl)n2)c1)Nc1cncc2ccccc12` yielded an IC50 of 1.94 µM. In turn, `CC(C)(C)c1ccc(N(C(=O)c2cocn2)C(C(=O)NC2CCOC2)c2cccnc2)cc1` (stereo not drawn) yielded a concentration for half-maximal inhibition (IC50) of 2.77 µM.

For the molecule `COCCN1CC(C(=O)Nc2cncc3ccccc23)c2cc(Cl)ccc2C1=O` (stereo not drawn), the IC50 came to 0.267 µM.

Turning to `CN(c1ccc2c(NC(=O)C3CN(S(=O)(=O)CC4(C#N)CC4)Cc4ccc(Cl)cc43)cncc2c1)S(C)(=O)=O` (stereo not drawn), the IC50 worked out at 0.232 µM. For the molecule `O=C(CCl)N1CCC(c2nc(-c3cccnc3)nc3ccccc23)CC1`, the IC50 is 18.2 µM. The same measure for `COC1(CS(=O)(=O)N2Cc3ccc(Cl)cc3C3(CCN(c4cncc5ccccc45)C3=O)C2)CC1` (stereo not drawn): 0.356 µM; for `O=C(NCCc1cccc(F)c1)C(c1cccnc1)N(C(=O)c1cocn1)C1CCC2OCCC2C1` (stereo not drawn): more than 99.5 µM; for `CCOc1ccccc1CNc1cc(Cl)cc(CC(=O)Nc2cncc3ccccc23)c1`: 2.07 µM. `O=C(NCCCO)c1ccc(N(C(=O)c2cocn2)C(C(=O)NCCc2cccc(F)c2)c2cccnc2)cc1` (stereo not drawn) returned an IC50 of more than 99.5 µM.

In turn, `O=C1N(c2cncc3ccccc23)CCC12CN(S(=O)(=O)N1CCC1)Cc1ccc(Cl)cc12` (stereo not drawn) registered a 50% inhibitory concentration (IC50) of 0.33 µM. The molecule `C=CC(=O)N1CCN(S(=O)(=O)c2ccccc2)CC1` showed an IC50 of more than 99.5 µM. The molecule `O=C1CN(C(=O)Cc2cccc(Cl)c2)Cc2ccccc21` came in with a concentration for half-maximal inhibition (IC50) of more than 99.5 µM. For `CC(C)(C)OC(=O)CNC(=O)C(c1cccnc1)N(C(=O)c1cocn1)c1ccc(C(C)(C)C)cc1` (stereo not drawn), the IC50 is 8.18 µM.

For the molecule `CC(C(=O)OC1CCCN(Cc2cccc(C(F)(F)F)c2)C1=O)n1cnc(C#N)n1` (stereo not drawn), the IC50 is 8.45 µM and 10.2 µM.

Regarding `CN1CCN(c2cncc3ccccc23)C(=O)C1c1cccc(Cl)c1` (stereo not drawn), the concentration for half-maximal inhibition (IC50) turned out to be 2.21 µM.

For `O=C(Cc1cccc(Cl)c1)Nc1cncc2sccc12`, the IC50 worked out at 0.425 µM. As for `O=C(Nc1ccccn1)[C@H]1CN(C(=O)CCl)CCN1S(=O)(=O)c1ccsc1` (stereo in doubt), the figure is 4.77 µM; as for `O=C(Cc1nnn2ccccc12)N(Cc1ccccc1)c1ccc(N2CCCCC2)cc1`, more than 99.5 µM. Molecule `CC(C)(O)c1ccc(N(C(=O)c2cocn2)C(C(=O)NCCc2cccc(F)c2)c2cccnc2)cc1` (stereo not drawn) had a half-maximal inhibitory concentration (IC50) of 26.5 µM. Regarding `COC1(c2cccc(Cl)c2)CCCN(c2cncc3ccccc23)C1=O` (stereo not drawn), the IC50 turned out to be 2.08 µM. In turn, `Cc1ccc(C(Cc2cnn(C)c2)C(=O)Nc2n[nH]c3ccccc23)cc1` (stereo not drawn) showed a 50% inhibitory concentration (IC50) of more than 99.5 µM. `O=C(NCCc1cccc(F)c1)C(c1cccnc1)N(C(=O)c1ccco1)c1ccc(-c2n[nH]c3c2COCC3)cc1` (stereo not drawn) had an IC50 of 43 µM. Turning to `COc1ccccc1OCCNC(=O)c1cc(=O)ccn1C`, the IC50 was more than 99.5 µM. `CNC(=O)CN1Cc2ccc(Cl)cc2C(C(=O)Nc2cncc3cc(NS(C)(=O)=O)ccc23)C1` (stereo not drawn): the half-inhibitory concentration (IC50) was found to be 0.0728 µM. `COc1ccc(CNc2cc(Cl)cc(CC(=O)Nc3cncc4ccccc34)c2)c(OC)c1` showed a 50% inhibitory concentration (IC50) of 3.37 µM. Molecule `Cc1ccc(Br)nc1C(=O)NC(C)c1nnc2c(=O)[nH]ccn12` (stereo not drawn) returned a concentration for half-maximal inhibition (IC50) of more than 99.5 µM. The same measure for `C=CC(=O)N(c1ccc(C(C)(C)C)cc1)C(C(=O)NC)c1cccnc1` (stereo not drawn): 35.7 µM; for `Nc1ccc2c(c1)C(=O)N(c1cc(Cl)cc(CC(=O)Nc3cncc4ccccc34)c1)C2=O`: 1.86 µM; for `COc1cc(Nc2cc(Cl)cc(CC(=O)Nc3cncc4ccccc34)c2)ccc1Br`: 1.89 µM. The molecule `O=C(Cc1cc(Cl)cc(N2CCCCC2)c1)Nc1cncc2ccccc12` gave an IC50 of more than 9.95 µM. `CN1C(=O)CCc2cc(N(C(=O)c3cnc[nH]3)C(C(=O)NCCc3cccc(F)c3)c3cccnc3)ccc21` (stereo not drawn) yielded an IC50 of more than 99 µM. The molecule `C=CC(=O)NCCC(=O)N(Cc1ccccc1)Cc1nc2ccccc2c(=O)[nH]1` yielded an IC50 of more than 99.5 µM. As for `Nc1nn(C(=O)Cc2cccc(Cl)c2)c2cccc(F)c12`, the figure is more than 99.5 µM; as for `O=C(Nc1cncc2ccccc12)C1CN(Cc2nnc[nH]2)Cc2ccc(Cl)cc21` (stereo not drawn), 0.784 µM. As for `O=C1N(c2cncc3ccccc23)CCC12CN(S(=O)(=O)CC1CS(=O)(=O)C1)Cc1ccc(Cl)cc12` (stereo not drawn), the IC50 is 0.353 µM.

Take `O=C(CCl)N1CCN(Cc2cc(O)ccc2O)CC1`: the half-maximal inhibitory concentration (IC50) amounted to 37.4 µM.
